One assay concerns EOL-1 cell line. The assay is described as follows: In vitro antiproliferation assay, General Procedure 2 (CCK-8). The conditions noted are these: Leukemia, Human eosinophilic leukaemia; read-out: IC50 (M), EoL-1. Format: cell-based, human. An excerpt: (§1) Cell Culture: Cell lines were obtained from the American Type Culture Collection (ATCC, Manassas, VA, USA) or Deutsche Sammlung von Mikroorganismen und Zellkulturen (DSMZ, Braunschweig, Germany) and maintained according to the culturing conditions specified by ATCC or DSMZ. Cells were thawed out and maintained in culture for at least two passages before proceeding with experimental conditions.
(§2) Cytotoxicity assays: For adherent cell lines, the cells were dissociated with enzyme-free PBS-based cell dissociation buffer (Gibco, USA) and plated on tissue culture treated 96-well flat bottom polystyrene plates (Costar, Corning, USA) at appropriate cell densities depending on doubling time of the cells. 18 hours after plating, cells were treated with test articles at appropriate concentrations starting at 100 nM and diluted in 4-fold serial dilutions. For suspension cell lines, the cells were seeded on the same day of treatment and cells were treated as described above. Adherent cells were treated for 5 days and suspension cells were treated for 3 days. Cell proliferation was assessed using the Cell Counting Kit-8 (CCK-8, Dojindo Laboratories, Japan) and measurements were obtained using the Promega GloMax Discover plate reader (Promega, USA). Data were analyzed using GraphPad Prism software (GraphPad Software, San Diego, CA). All data points were obtained from technical triplicates and the experiments were validated using three biological replicates.

The test system of assay [1] is HL-60 (acute myeloid leukemia) cell line. The assay is described as follows: In vitro antiproliferation assay, General Procedure 1 (WST-8). Format: cell-based. The settings on record: AML; conjugates DAR 8, Mylotarg DAR not given. As to the method:
The ability of neoDegrader conjugates to inhibit cell growth was measured using in vitro anti-proliferation assay. […] Conjugates were diluted in complete cell growth medium using 4-fold serial dilutions and 100 µL was added per well. […] Viability of remaining cells was determined by colorimetric WST-8 assay (Dojindo Molecular Technologies, Inc., Rockville, MD, US). WST-8 was added to 10% of the final volume and plates were incubated at 37° C. in a humidified 5% CO2 incubator for 2-4 hours. Plates were analyzed by measuring the absorbance at 450 nm (A450) in a multi-well plate reader. Background A450 absorbance of wells with media and WST-8 only was subtracted from all values. The percent viability was calculated by dividing each treated sample value by the average value of wells with untreated cells. The percent viability value was plotted against the test sample concentration in a semi-log plot for each treatment. IC50 values were calculated automatically.
On the technique in general: Tetrazolium assays rely on reduction of a dye to a coloured formazan, in cell work by metabolically active cells.

A further assay relates to HL-60 cell line. The assay is described as follows: In vitro antiproliferation assay, General Procedure 2 (CCK-8). Format: cell-based. The conditions noted are these: leukemia, acute promyelocytic; read-out: IC50 (M), HL-60.
Text: as §1, §2

The next assay has as its system Kopn-8 cell line. Described as above. Format: cell-based. The settings on record: leukemia, B cell precursor leukemia.
Text: as §1, §2

The subject of another assay is OCI-AML-5 cell line. The assay is described as above. Format: cell-based. The conditions noted are these: leukemia, acute myeloid leukemia.
Text: as §1, §2

In the next assay the test system is MV4-11 cell line. The assay is described as above. Format: cell-based. The conditions noted are these: leukemia, biphenotypic B myelomonocytic; read-out: IC50 (M), MV-4-11.
Text: as §1, §2

The next assay deals with OCI-AML-6 cell line. Described as above. Format: cell-based. The settings on record: leukemia, acute myeloid leukemia.
Text: as §1, §2

The test system of the next assay is OCI-AML-1 cell line. Described as above. Format: cell-based. The conditions noted are these: leukemia, acute myeloid leukemia.
Text: as §1, §2

Another assay concerns F-36P cell line. Described as above. Format: cell-based. The conditions noted are these: leukemia, myelodysplastic syndrome.
Text: as §1, §2

A further assay concerns Kasumi-6 cell line. Described as above. The conditions noted are these: leukemia, acute myeloid, myeloblast. Format: cell-based.
Text: as §1, §2

The test system of another assay is PLB-985 cell line. Described as above. Format: cell-based. The conditions noted are these: leukemia, acute myeloid leukemia (derivative of HL-60).
Text: as §1, §2

For another assay, the system named is AML-193 cell line. Described as above. Format: cell-based. The settings on record: leukemia, acute monocytic, monocyte.
Text: as §1, §2

The subject of another assay is HNT-34 cell line. Described as above. Format: cell-based. The settings on record: leukemia, acute myeloid leukemia.
Text: as §1, §2

For a further assay, the system named is OCI-AML4 cell line. The description is as above. Format: cell-based. The conditions noted are these: leukemia, acute myeloid leukemia; read-out: IC50 (M), OCI-AML-4.
Text: as §1, §2

A further assay has as its system OCI-AML2 cell line. The description is as above. Format: cell-based. The settings on record: leukemia, acute myeloid leukemia; read-out: IC50 (M), OCI-AML-2.
Text: as §1, §2

The subject of another assay is ML-2 cell line. The assay is described as above. Format: cell-based. The conditions noted are these: leukemia, acute myelomonocytic leukemia; read-out: IC50 (M), ML-2.
Text: as §1, §2

Another assay relates to SKNO-1 cell line. Described as above. Format: cell-based. The settings on record: leukemia, acute myeloid leukemia.
Text: as §1, §2

The next assay has as its system SKM-1 cell line. The description is as above. Format: cell-based. The conditions noted are these: leukemia, myelodysplastic syndrome; read-out: IC50 (M), SKM-1.
Text: as §1, §2

A further assay relates to MOLM13 cell line. The assay is described as above. Format: cell-based. The settings on record: leukemia, acute,myeloid,leukemia suspension; read-out: IC50 (M), Molm-13.
Text: as §1, §2

Another assay deals with RD-ES cell line. The assay is described as above. Format: cell-based. The settings on record: Ewing’s sarcoma.
Text: as §1, §2

In general, IC50 refers to the point on the concentration scale where inhibition reaches its midpoint.

For “Mylotarg: approved agent, known antibody drug conjugate MYLOTARG”, the IC50 with EOL-1 cell line stood at 6.87e-11 M; in [1], 0.0011 nM; in the assay on HL-60 cell line, 3.26e-10 M; with Kopn-8 cell line, 0.687 nM; in the assay on OCI-AML-5 cell line, 0.0783 nM; with MV4-11 cell line it was 5.32e-11 M. The IC50 was > 20 nM with OCI-AML-6 cell line; 0.224 nM with OCI-AML-1 cell line; > 20 nM with F-36P cell line; > 20 nM in the assay on Kasumi-6 cell line; 7.14 nM in the assay on PLB-985 cell line; > 20 nM in the assay with AML-193 cell line. For the same molecule, the IC50 in the assay on HNT-34 cell line was determined as 3.77 nM; in the assay on OCI-AML4 cell line it was 2.37e-10 M; in the assay with OCI-AML2 cell line it was 3.94e-11 M; in the assay with ML-2 cell line it was 5.02e-11 M; in the assay with SKNO-1 cell line, 13.4 nM; in the assay with SKM-1 cell line it was 2.24e-10 M. For the same molecule, the IC50 in the assay with MOLM13 cell line was found to be 2.7e-11 M.

B1: Ontuxizumab-Compound (Ia) (conjugate, chains of the INN, looked up)
VH: QVQLQESGPGLVRPSQTLSLTCTASGYTFTDYVIHWVKQPPGRGLEWIGYINPYDDDTTYNQKFKGRVTMLVDTSSNTAYLRLSSVTAEDTAVYYCARRGNSYDGYFDYSMDYWGSGTPVTVSS
VL: DIQMTQSPSSLSASVGDRVTITCRASQNVGTAVAWLQQTPGKAPKLLIYSASNRYTGVPSRFSGSGSGTDYTFTISSLQPEDIATYYCQQYTNYPMYTFGQGTKVQIK
modifications: conjugated to Compound (Ia)
For B1, the IC50 in the assay with RD-ES cell line was determined as 0.0273 nM.

(Values after patent publication US20230338564A1, “NEODEGRADER CONJUGATES” (Orum Therapeutics, Inc., priority 2020, published 2023).)
